Experimental data as given in patent US11254661B2, “Quinoline derivatives for treating infections with helminths” (Bayer Animal Health GMBH, priority 2017, dated 2022).
pEC50: −log10 of the molar value.

Legend:
[1] = tested on: Dirofilaria immitis microfilariae; assay: In Vitro Assay 2: Dirofilaria immitis microfilariae (DIROIM L1) motility; conditions: 72 h
C. elegans Slo-1a = C. elegans Slo-1a (Caenorhabditis elegans, UniProt Q95V25)
C. elegans Slo-1a, sequence (Q95V25 whole entry): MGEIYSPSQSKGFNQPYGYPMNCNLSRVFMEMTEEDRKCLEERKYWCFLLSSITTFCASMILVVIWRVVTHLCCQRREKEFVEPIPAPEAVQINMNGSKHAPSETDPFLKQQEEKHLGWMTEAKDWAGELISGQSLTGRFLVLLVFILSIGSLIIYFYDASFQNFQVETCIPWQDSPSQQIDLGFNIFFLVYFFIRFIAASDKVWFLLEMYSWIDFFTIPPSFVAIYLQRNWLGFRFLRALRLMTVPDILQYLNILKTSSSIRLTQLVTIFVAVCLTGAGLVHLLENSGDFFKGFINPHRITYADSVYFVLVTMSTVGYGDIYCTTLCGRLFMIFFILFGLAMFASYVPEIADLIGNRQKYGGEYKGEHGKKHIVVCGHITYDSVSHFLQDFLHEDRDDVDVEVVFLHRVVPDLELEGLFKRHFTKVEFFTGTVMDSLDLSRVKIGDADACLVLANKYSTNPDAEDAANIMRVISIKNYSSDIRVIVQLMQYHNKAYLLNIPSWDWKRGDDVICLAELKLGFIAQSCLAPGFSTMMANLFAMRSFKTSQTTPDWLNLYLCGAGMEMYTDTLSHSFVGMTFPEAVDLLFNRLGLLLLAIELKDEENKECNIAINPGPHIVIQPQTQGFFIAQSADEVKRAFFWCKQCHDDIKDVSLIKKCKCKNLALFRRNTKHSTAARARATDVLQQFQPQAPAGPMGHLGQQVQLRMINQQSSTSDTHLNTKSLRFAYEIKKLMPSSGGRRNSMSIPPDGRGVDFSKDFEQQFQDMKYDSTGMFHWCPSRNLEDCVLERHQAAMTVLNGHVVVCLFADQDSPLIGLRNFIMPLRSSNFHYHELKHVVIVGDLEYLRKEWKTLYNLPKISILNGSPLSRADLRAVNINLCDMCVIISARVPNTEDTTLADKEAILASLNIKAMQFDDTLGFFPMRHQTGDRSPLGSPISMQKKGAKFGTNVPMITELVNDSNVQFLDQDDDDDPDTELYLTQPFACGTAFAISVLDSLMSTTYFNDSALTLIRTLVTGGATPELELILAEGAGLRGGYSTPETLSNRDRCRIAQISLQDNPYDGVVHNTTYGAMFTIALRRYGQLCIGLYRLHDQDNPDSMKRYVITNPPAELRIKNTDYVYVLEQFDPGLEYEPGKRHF
Experimental: In Vitro Assay 1: C. elegans Slo-1a—Action at a Recombinant C. elegans Cell Line
Cells were cultured at 37° C. and 5% CO2 in MEMalpha with Gutamax I (Invitrogen, Nr.: 32571), supplemented with 10% (v/v) heat inactivated fetal bovine serum (Invitrogen, Nr.: 10500), G418 (1 mg/ml, Invitrogen, Nr.: 10131). Cells were detached using Accutase (Sigma, Nr.: A6964).
Membrane Potential Measurements
Laboratory compound testing was performed on 384-well microtiter plates (MTPs, Greiner, Nr.: 781092). 8000 cells/well were plated onto 384-well MTPs and cultured for 20 to 24 hours at 37° C. and 5% CO2. After removal of the cell culture medium, the cells were washed once with tyrode (150 mM NaCl, 0.3 mM KCl, 2 mM CaCl2, 1 mM MgCl2, 0.8 mM NaH2PO4, 5 mM Glucose, 28 mM Hepes, pH 7.4) and then loaded with the voltage sensitive dye of the Membrane Potential Assay Kit diluted in tyrode for 1 h at room temperature.
After starting the measurement of fluorescence using a FLIPR Tetra(Molecular Devices, Exc. 510-545 nm, Emm. 565-625 nm), test compounds were added followed by the addition of KCl tyrode (final assay concentration: 70 mM KCl, 2 mM CaCl2, 1 mM MgCl2, 0.8 mM NaH2PO4, 5 mM Glucose, 28 mM Hepes, pH 7.4, including the voltage sensitive dye). The measurement was completed after 7 minutes.

SMILES	EC50 [1]	pEC50 (C. elegans Slo-1a)
C[C@@H]1CN(c2cccc3c(N4CCOCC4)c(C(=O)N[C@H]4CCOc5ccccc54)cnc23)C[C@@H](C)O1 [Example 32, N-[(4S)-3,4-dihydro-2H-chromen-4-yl]-8-[(2R,6R)-2,6-dimethylmorpholin-4-yl]-4-(morpholin-4-yl)quinoline-3-carboxamide]	< 1 µg/mL	5.30 to 6.50
CC(C)c1c(C(=O)N[C@H]2CCOc3ccccc32)cnc2c(N3CCCCC3)cccc12 [Example 35, N-[(4S)-3,4-dihydro-2H-chromen-4-yl]-8-(piperidin-1-yl)-4-(propan-2-yl)quinoline-3-carboxamide]	< 0.1 µg/mL	6.50 to 7.50
CN(C)c1c(C(=O)N[C@H]2CCOc3ccccc32)cnc2c(C3=CCOCC3)cccc12 [Example 13, (S)—N-(Chroman-4-yl)-8-(3,6-dihydro-2H-pyran-4-yl)-4-(dimethylamino)quinoline-3-carboxamide]	< 1 µg/mL	6.50 to 7.50
CN(C)c1c(C(=O)N[C@H]2CCc3ccccc32)cnc2c(N3CCS(=O)(=O)CC3)c(F)ccc12 [Example 46, N-[(1S)-2,3-dihydro-1H-inden-1-yl]-4-(dimethylamino)-8-(1,1-dioxidothiomorpholin-4-yl)-7-fluoroquinoline-3-carboxamide]	< 10 µg/mL	5.30 to 6.50
COCCCc1cccc2c(N(C)C)c(C(=O)N[C@H]3CCOc4ccccc43)cnc12 [Example 4, (S)—N-(Chroman-4-yl)-4-(dimethylamino)-8-(3-methoxypropyl)quinoline-3-carboxamide]	< 10 µg/mL	5.30 to 6.50
CN(C)c1c(C(=O)N[C@H]2CCOc3ccccc32)cnc2c(C3CCOCC3)cccc12 [Example 6, (S)—N-(Chroman-4-yl)-4-(dimethylamino)-8-(tetrahydro-2H-pyran-4-yl)quinoline-3-carboxamide]	< 1 µg/mL	6.50 to 7.50
CC(C)c1cccc2c(N(C)C)c(C(=O)N[C@H]3CCOc4ccccc43)cnc12 [Example 10, (S)—N-(Chroman-4-yl)-4-(dimethylamino)-8-isopropylquinoline-3-carboxamide]	< 1 µg/mL	6.50 to 7.50
O=C(N[C@H]1CCOc2ccccc21)c1cnc2c(N3CCCCC3)cccc2c1N1CCOCC1 [Example 29, N-[(4S)-3,4-dihydro-2H-chromen-4-yl]-4-(morpholin-4-yl)-8-(piperidin-1-yl)quinoline-3-carboxamide]	< 0.1 µg/mL	6.50 to 7.50
C[C@@H]1COCCN1c1cccc2c(N3CCOCC3)c(C(=O)N[C@H]3CCOc4ccccc43)cnc12 [Example 27, N-[(4S)-3,4-dihydro-2H-chromen-4-yl]-8-[(3R)-3-methylmorpholin-4-yl]-4-(morpholin-4-yl)quinoline-3-carboxamide]	< 1 µg/mL	5.30 to 6.50
CN(C)c1c(C(=O)N[C@H]2CCOc3ccccc32)cnc2c(C3COC3)cccc12 [Example 5, (S)—N-(Chroman-4-yl)-4-(dimethylamino)-8-(oxetan-3-yl)quinoline-3-carboxamide]	< 10 µg/mL	5.30 to 6.50
CN(C)c1c(C(=O)N[C@H]2CCOc3ccccc32)cnc2c(C3CN(C(=O)OC(C)(C)C)C3)cccc12 [Example 20, tert-Butyl(S)-3-(3-(chroman-4-ylcarbamoyl)-4-(dimethylamino)quinolin-8-yl)azetidine-1-carboxylate]	< 10 µg/mL	5.30 to 6.50
O=C(N[C@H]1CCc2ccccc21)c1cnc2c(N3CCOCC3)c(F)ccc2c1N1CCOCC1 [Example 45, N-[(1S)-2,3-dihydro-1H-inden-1-yl]-7-fluoro-4,8-di(morpholin-4-yl)quinoline-3-carboxamide]	< 1 µg/mL	6.50 to 7.50
O=C(N[C@H]1CCc2ccccc21)c1cnc2c(N3CCCC3)c(F)ccc2c1N1CCOCC1 [Example 48, N-[(1S)-2,3-dihydro-1H-inden-1-yl]-7-fluoro-4-(morpholin-4-yl)-8-(pyrrolidin-1-yl)quinoline-3-carboxamide]	< 1 µg/mL	7.50 to 8.50
